Measured values as given in patent US20160025704A1, “METHODS FOR IDENTIFYING NEUROPROTECTIVE PKC ACTIVATORS” (priority 2013, published 2016).
Read-outs that look alike come from different tables or passages of the source.

Key:
[1] = system: human neprilysin; assay: Neprilysin activity in SH+hNEP cells (fluorometric); assay type: cell-based; details: 1 nM for 15 min to 3 hours; 0.27, 0.5, 1, or 2 nM for 1 hr (FIG. 32)
Procedure: Protocol: Intact SH+hNEP cells were incubated in the absence or presence of bryostatin (1 nM) for 15 min, 30 min, 1 hour, or 3 hours. Cells were then lysed and neprilysin activity was measured. 50 μg of total lysates were separately incubated with 0.5 mM glutaryl-Ala-Ala-Phe-4-methoxy-2-naphthylamide as a substrate. Further incubation with leucine aminopeptidases released free 4-methoxy-2-naphthylamide that was measured fluorometrically at an emission of 425 nm (Mean+SEM of three independent experiments, *P<0.05; **P<0.01, Bryo compared with untreated condition). Intact SH+hNEP cells were incubated in the absence or presence of bryostatin (Bryo) at 0.27, 0.5, 1, or 2 nM concentration for 1 hr, lysed and then neprilysin activity for each condition was fluorometically measured as shown in (A) (Mean+SEM of three independent experiments, *P<0.05; **P<0.01, Bryo compared with untreated condition). Results are shown below in FIG. 32 (A—fluorometric results of free 4-methoxy-2-naphthylamide measured at different time points; B—fluorometric results of free 4-methoxy-2-naphthylamide measured at different concentrations of bryostatin).
Immunoprecipitates were subjected to Western blot analysis using phospho-Ser/Thr or neprilysin antibody (Mean+SEM of three independent experiments, **P<0.01, Bryo compared with untreated; #P<0.01, Ro+Bryo compared with Bryo). […]

[2] = system: mTBI mice; assay: Minimal traumatic brain injury, MWM cognitive test; assay type: in vivo; details: 5× i.p. over 14 days; for mTBI induced learning deficits (MWM): injured mice
Procedure: Protocol: One hour after the minimal traumatic brain injury was induced, the mice received a 5×i.p. bryostatin-1 injection treatment over a period of 14 days, in two injection doses 20 and 30 μg/kg (N=9 in each group). One hour after the last injection of the series, the cognitive ability of the mice was tested in the MWM. Mice were tested for 4 days 6 times a day. On day 5 the platform was removed and the mice memory retention was tested. […] Data was analyzed using repeated measure one way ANOVA and presented as mean±S.E.M. Both doses protected the learning abilities of the injured mice (pb0.01).

[3] = system: HL-60 cells; details: Kraft et al. 1986; cited from earlier work
[4] = target: T1, PKC-ε (Homo sapiens, UniProt Q02156); assay: Activation of purified PKC isozymes; assay type: biochemical
T1 sequence (Q02156 1-737): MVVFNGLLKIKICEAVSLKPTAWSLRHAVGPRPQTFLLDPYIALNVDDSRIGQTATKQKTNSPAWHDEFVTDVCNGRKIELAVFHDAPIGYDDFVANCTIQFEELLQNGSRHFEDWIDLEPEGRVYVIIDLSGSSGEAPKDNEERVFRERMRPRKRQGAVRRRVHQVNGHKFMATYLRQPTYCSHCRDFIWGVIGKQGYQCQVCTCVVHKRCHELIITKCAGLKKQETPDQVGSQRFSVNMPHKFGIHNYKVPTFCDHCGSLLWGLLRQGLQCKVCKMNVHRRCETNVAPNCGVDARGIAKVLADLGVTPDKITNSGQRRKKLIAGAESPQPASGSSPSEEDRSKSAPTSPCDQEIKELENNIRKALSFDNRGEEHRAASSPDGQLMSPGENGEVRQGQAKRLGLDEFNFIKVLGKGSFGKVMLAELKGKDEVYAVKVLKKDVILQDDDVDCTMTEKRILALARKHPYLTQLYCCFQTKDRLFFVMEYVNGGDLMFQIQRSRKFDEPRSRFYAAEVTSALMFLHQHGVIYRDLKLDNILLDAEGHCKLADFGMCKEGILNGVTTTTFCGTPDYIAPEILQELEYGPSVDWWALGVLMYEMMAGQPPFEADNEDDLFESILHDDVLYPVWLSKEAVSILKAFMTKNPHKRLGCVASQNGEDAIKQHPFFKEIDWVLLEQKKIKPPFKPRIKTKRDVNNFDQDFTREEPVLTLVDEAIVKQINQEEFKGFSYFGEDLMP
Procedure: Protocol: Purified PKC-α, βII, γ, δ, or ε (9 ng) was preincubated for 5 minutes at room temperature with the following PKC activators: (A) DHA-CP6, (B) EPA-CP5, (C) AA-CP4, (D) DCP-LA, (E) “other cyclopropaneated and epoxidized fatty acids, alcohols, and methyl esters.” followed by measurement of PKC activity as described under Experimental Procedures. Results are shown below in FIG. 6.

[5] = system: monomeric Aβ(1-42); assay: Aβ peptide degradation by SH+hNEP cells; assay type: cell-based, human; details: 1 nM, 2.5 μg monomeric Aβ(1-42), 4 hours
Procedure: Protocol: Intact SH+hNEP cells were incubated with 2.5 μg of monomeric Aβ(1-42) for 4 hours in the absence or presence of bryostatin (Bryo, 1 nM). Some cells were cotreated with phosphoramidon (PA, 10 μM, a specific neprilysin inhibitor), Ro 32-0432 (Ro, 2 μM, a PKC inhibitor), or PA+Ro in the presence of bryostatin (1 nM) for 4 hours. Aβ peptide was then precipitated from the reactions by 20% trichloroacetic acid and immunoblotted with use of Aβ peptide 1-16 antibody (6E10). Arrow indicates the size of monomeric Aβ peptide (FIG. 18), which is around 4 kDa. Densitometry measurements of developed protein bands on Western blots were made and assigned as relative expression change (Mean+SEM of three independent experiments, **P<0.01, Bryo compared with untreated; #P<0.01, PA, Ro, or PA+Ro compared with Bryo.).

[6] = system: TA 100 cells & TA 1535 cells / TA 98 cells; assay: AMES testing, overall result (mutagenic potential); assay type: cell-based
Text: The AMES test is a rapid screening of the mutagenic potential of chemical compounds. […] Between 50% and 70% of all known carcinogens test positive in the AMES test.

## CCC/C=C/C=C/C(=O)O[C@H]1/C(=C/C(=O)OC)C[C@H]2C[C@H]([C@@H](C)O)OC(=O)C[C@H](O)C[C@@H]3C[C@H](OC(C)=O)C(C)(C)[C@](O)(C[C@@H]4C/C(=C/C(=O)OC)C[C@H](/C=C/C(C)(C)[C@]1(O)O2)O4)O3 [Bryostatin, bryostatin-1]
[1]
  neprilysin activity: increases neprilysin activity
[2]; 20 μg/kg
  acquisition of the learning task, mTBI group versus control mice: improved their acquisition of the learning task even beyond that of control mice
  learning of control uninjured mice: no effect on uninjured mice
  mTBI induced learning deficits (MWM): protected against the mTBI induced learning deficits
[2]; 30 μg/kg
  learning of control uninjured mice: improved the learning of control uninjured mice
  mTBI induced learning deficits (MWM): protected against the mTBI induced learning deficits
[3]
  phorbol ester-induced differentiation of HL-60 cells: block phorbol ester-induced differentiation of HL-60 cells
[4]; in vitro measurements with purified PKC isozymes
  activation of α isoform versus ε isoform: activates the α isoform and ε isoform equally
[5]
  Aβ peptide degradation: induces Aβ peptide degradation through neprilysin activation
[6]; summary of Tables 1-4
  AMES testing result: not mutagenic

## CCCCCC1CC1CC1CC1CCCCCCCC(=O)O (stereo not shown) [DCPLA, 8-[2-(2-pentylcyclopropyl)methyl]-cyclopropaneoctanoic acid]
[4]; purified PKC isozymes (9 ng), preincubated 5 minutes at room temperature
  PKC-ε specificity versus PKC-α and PKC-δ: PKC-ε specificity ±15% PKC-α and PKC-δ
[6]
  AMES testing result: not mutagenic
  Result (Mutagenic Potential): Result: Not mutagenic, p > 0.05
